Assay results reported in the NIST ThermoML archive (doi:10.1016/j.fluid.2016.05.032).
± gives the expanded uncertainty stated by the source.

Details: Liquid, Closed cell (Static) method

SMILES	vapor or sublimation pressure (345.15 K) [kPa]	vapor or sublimation pressure (350.15 K) [kPa]	vapor or sublimation pressure (355.15 K) [kPa]	vapor or sublimation pressure (360.15 K) [kPa]	vapor or sublimation pressure (365.15 K) [kPa]	vapor or sublimation pressure (320.15 K) [kPa]	further results
Cc1ccccc1C [1,2-dimethylbenzene]	9.182 ± 0.061	11.27 ± 0.074	13.73 ± 0.081	16.62 ± 0.095	20 ± 0.11		
Cc1cccc(C)c1 [1,3-dimethylbenzene]	11 ± 0.058	13.44 ± 0.07	16.32 ± 0.083	19.68 ± 0.098	23.59 ± 0.1		
Cc1ccc(C)cc1 [1,4-dimethylbenzene]	11.39 ± 0.061	13.9 ± 0.071	16.85 ± 0.085	20.3 ± 0.095	24.3 ± 0.1		
CC(O)COC(C)COC(C)CO (stereo not given) [2-[2-(2-hydroxypropoxy)propoxy]-1-propanol]		0.039 ± 0.006					vapor or sublimation pressure (357.15 K): 0.063 ± 0.016 kPa; vapor or sublimation pressure (364.15 K): 0.098 ± 0.009 kPa; vapor or sublimation pressure (371.15 K): 0.15 ± 0.018 kPa; vapor or sublimation pressure (378.15 K): 0.224 ± 0.009 kPa
CCc1ccccc1 [ethylbenzene]						4.076 ± 0.038	vapor or sublimation pressure (326.15 K): 5.41 ± 0.047 kPa; vapor or sublimation pressure (332.15 K): 7.093 ± 0.052 kPa; vapor or sublimation pressure (338.15 K): 9.194 ± 0.058 kPa; vapor or sublimation pressure (344.15 K): 11.79 ± 0.071 kPa
Cc1ccccc1 [toluene]						10.77 ± 0.052	vapor or sublimation pressure (315.15 K): 8.622 ± 0.044 kPa; vapor or sublimation pressure (325.15 K): 13.34 ± 0.059 kPa; vapor or sublimation pressure (330.15 K): 16.4 ± 0.071 kPa; vapor or sublimation pressure (335.15 K): 20.02 ± 0.08 kPa
